US20070203224A1, “SMALL-MOLECULES FOR TREATING CANCER AND ABNORMAL CELL PROLIFERATION DISORDERS” (University of Southern California, priority 2006, published 2007)

Assays:
[1] = test system: MCF7 breast cells; experiment: MTT assay (cytotoxicity); format: cell-based; conditions: Homo sapiens, read-out: Anticancer Activity (IC50)
Method: [The procedure below names another cell line; the source lists this cell line under the same test.] (§1) The cytotoxicity of the several representative compounds have been evaluated using MTT assay. Briefly, cells were seeded in 96-well microtiter plates (HCT16 p53+/+ (wild type), HCTp53−/− (p53 negative) colon cancer cells and MD-MBA-435 (p53 mutant) breast cancer cells at 4,000 cells/well) and allowed to attach. Cells were subsequently treated with a continuous exposure to the corresponding drug for 72 hours. A 3-(4,5-dimethylthiazol-2-yl)-2,5-diphenyltetrazolium bromide solution (at a final concentration of 0.5 mg/mL) was added to each well, and cells were incubated for 4 hours at 37° C. After removal of the medium, DMSO was added and the absorbance was read at 570 nm. All assays were done in triplicate. The IC50 was then determined for each drug from a plot of log (drug concentration) versus percentage of cell kill.

[2] = test system: HCT16 p53+/+ (wild type) colon cancer cells; experiment: MTT assay (cytotoxicity); format: cell-based; conditions: Homo sapiens, 72 hours exposure, read-out: Anticancer Activity (IC50)
Method: as §1

[3] = test system: NIH 189 mouse fibroblast cells; experiment: MTT assay (cytotoxicity); format: cell-based; conditions: read-out: Anticancer Activity (IC50)
Method: [The procedure below names another organism; the source lists this organism under the same test.] as §1

[4] = test system: NIH3T3 mouse fibroblast cells; experiment: MTT assay (cytotoxicity); format: cell-based; conditions: read-out: Anticancer Activity (IC50)
Method: [The procedure below names another organism; the source lists this organism under the same test.] as §1

[5] = test system: MD-MBA-435 (p53 mutant) breast cancer cells; experiment: MTT assay (cytotoxicity); format: cell-based; conditions: Homo sapiens, 72 hours exposure, read-out: Anticancer Activity (IC50)
Method: as §1

[6] = test system: HCTp53−/− (p53 negative) colon cancer cells; experiment: MTT assay (cytotoxicity); format: cell-based; conditions: Homo sapiens, 72 hours exposure, read-out: Anticancer Activity (IC50)
Method: as §1

[7] = test system: HCT116p53+/+ cells; experiment: Cell cycle analysis by propidium iodide DNA staining; format: cell-based, human; conditions: 1 μM
Method: Cell cycle perturbations induced by the representative compounds were analyzed by propidium iodide DNA staining. […] At the end of each treatment time, cells were collected and washed with PBS after a gentle centrifugation at 200×g for 5 minutes. Cells were thoroughly resuspended in 0.5 mL of PBS and fixed in 70% ethanol for at least 2 hours at 4° C. Ethanol-suspended cells were then centrifuged at 200×g for 5 minutes and washed twice in PBS to remove residual ethanol. For cell cycle analysis, the pellets were suspended in 1 mL of PBS containing 0.02 mg/mL of propidiumiodide, 0.5 mg/mL of DNase-free RNase A and 0.1% of Triton X-100 and incubated at 37° C. for 30 minutes. Cell cycle profiles were obtained using a FACScan flowcytometer (Becton Dickinson, San Jose, Calif.) and data were analyzed by ModFit LT software (Verity Software House, Inc., Topsham, Me.).

[8] = test system: MDA-MB-435 cells; experiment: Drug treatment of tumor xenografts in athymic nude mice; format: in vivo
Method: 50 male athymic nude (nu/nu) mice (Charles River Laboratories, Wilmington, USA) were used for in vivo testing. The animals were fed ad libitum and kept in air-conditioned rooms at 20±2° C. with a 12 h light-dark period. Animal care and manipulation were in agreement with the University of Southern California (USC) institutional guidelines, which are in accordance with the Guidelines for the Care and Use of Laboratory Animals.
MDA-MB-435 cells from in vitro cell culture were inoculated s.c. in both flanks of athymic nude mice (2×10^6 cells/flank) under aseptic conditions. Tumor growth was assessed by biweekly measurement of tumor diameters with a Vernier caliper (length×width). Tumor weight was calculated according to the formula: TW (mg)=tumor volume (mm^3)=d^2×D/2, where d and D are the shortest and longest diameters, respectively. Cells were allowed to grow to an average volume of 100 mm^3. Animals were then randomly assigned for control and treatment groups to receive control vehicle or CT19 (10 and 20 mg/kg, dissolved in sesame oil) via i.p. injections once a day for 5 days. Treatment of each animal was based on individual body weight. After 5-day treatment, the tumor volumes in each group were measured once a week for four weeks. Treated animals were checked daily for treatment toxicity/mortality.
Assays were set up in triplicates and the results were expressed as means±SD. Statistical analysis and P-value determination were done by two-tailed paired t test with a confidence interval of 95% for determination of the significance differences between treatment groups. P<0.05 were considered to be significant. ANOVA was used to test for significance among groups. The SAS statistical software package (SAS institute) was used for statistical analysis.
The in vivo efficacy of CT19 was evaluated in nude mice inoculated with human breast MDA-MB-435 cells. Animals were treated with a daily i.p. injections of saline (controls) and CT19 at 10 mg/kg or 20 mg/kg. After five-days of dosing, the drug treatment was discontinued and the animals were monitored […].

[9] = test system: panel of human cancer cell lines; experiment: Anticancer activity in a panel of human cancer cell lines; format: cell-based; conditions: result in words
Method: Anticancer activities and cell cycle perturbations induced by a number of representative compounds have been evaluated using MTT and cell cycle analysis assays.
as §1

[10] = 10 mg/kg or 20 mg/kg daily i.p. for five days

SMILES | IC50 [1] [µM] | IC50 [2] [µM] | IC50 [5] [µM] | IC50 [6] [µM] | further results
C=C1C(=O)O[C@@H](c2ccccc2)C1c1ccccc1 (stereo in doubt) [CT14, (4S,5R)-3-methylene-4,5-diphenyl-dihydrofuran-2(3H)-one] | 2 | 2 ± 1 | 2 ± 2 | 8 ± 1 | IC50 [3]: 1 µM; IC50 [4]: 2 µM; G2/M arrest [7]: approximately 75%; % cells in G0/G1 ([7]; after 12 h): 11.9%; % cells in G2/M ([7]; after 12 h): 75.8%; % cells in S ([7]; after 12 h): 12.4%; % cells in G0/G1 ([7]; after 24 h): 12.6%; % cells in G2/M ([7]; after 24 h): 74.5%; % cells in S ([7]; after 24 h): 12.8%
C=C(C(=O)OC)[C@H](c1ccccc1)[C@@H](O)c1ccc(C#N)cc1 (stereo in doubt) [CT21, (3S,4R)-methyl 4-(4-cyanophenyl)-4-hydroxy-2-methylene-3-phenylbutanoate] | 3 | 2 ± 1 | 8 ± 2 | 13 ± 2 | –
C=C1C(=O)O[C@@H](c2ccccc2)[C@@H]1C [CT10] | – | 1 ± 1 | 5 ± 3 | 23 ± 2 | –
C=C1C(=O)O[C@@H](c2ccc([N+](=O)[O-])cc2)[C@H]1c1ccc(OC)cc1 [CT11] | 3 | 2 ± 1 | 2 ± 2 | 9 ± 5 | –
C=C1C(=O)O[C@@H](c2ccc([N+](=O)[O-])cc2)[C@@H]1c1ccc(C)cc1 [CT12] | 6 | 4 ± 1 | 3 ± 2 | 7 ± 5 | –
C=C1C(=O)O[C@@H](c2ccccc2)[C@H]1c1ccccc1 [CT13, (4S,5R)-3-methylene-4,5-diphenyl-dihydrofuran-2(3H)-one] | – | 3 ± 3 | 2 ± 2 | 11 ± 2 | –
C=C1C(=O)O[C@@H](c2ccc([N+](=O)[O-])cc2)[C@H]1c1ccc(C)cc1 [CT15] | – | > 20 | > 20 | > 20 | –
C=C1C(=O)O[C@@H](c2ccc([N+](=O)[O-])cc2)[C@H]1c1ccc(Cl)cc1 [CT16] | < 1 | 4 ± 2 | 3 ± 2 | 18 ± 1 | –
C=C1C(=O)O[C@@H](c2cc(OC)c(OC)c(OC)c2-c2cc(OC)c(OC)c(OC)c2)[C@H]1C [CT19] | 4 | 1 ± 1 | 5 | 4 | Apparent toxicity [8, 10]: without apparent toxicity; Tolerability [8, 10]: well tolerated; Tumor burden in breast xenografts [8, 10]: significantly reduced tumor burden; Tumor growth (tumor weight) ([8]; 20 mg/kg daily i.p. for five days, monitored five weeks, p<0.05): significantly reduced tumor growth
COc1cc(-c2c(C3OC(=O)C(C)=C3C)cc(OC)c(OC)c2OC)cc(OC)c1OC (stereo not shown) [CT20] | > 20 | 3 | > 20 | > 20 | –
C=C(C(=O)OC)[C@@H](c1ccccc1)[C@H](O)c1ccc([N+](=O)[O-])cc1 [CT22] | 3 | 1 ± 1 | 7 ± 5 | 12 ± 4 | IC50 [3]: 3 µM; IC50 [4]: 3.5 µM
COC(=O)/C(=C/c1ccccc1)CS(=O)(=O)c1ccc(C)cc1 [CT23, (Z)-methyl 3-phenyl-2-(tosylmethyl)acrylate] | 15 | 2 ± 2 | 6 ± 3 | 5 | Anticancer activity in a panel of human cancer cell lines [9]: potent anticancer activity at low micromolar concentration
